Assays:
[1] = target: Cytochrome P450 2C19 (Homo sapiens, UniProt P33261); test: Inhibition of CYP2C19 (unknown origin)
[2] = target: Cytochrome P450 2C9 (Homo sapiens, UniProt P11712); test: Inhibition of CYP2C9 (unknown origin)
[3] = target: Potassium voltage-gated channel subfamily H member 2 (Homo sapiens, UniProt Q12809); test: Inhibition of human ERG expressed in CHO cells at holding potential of -80 mV by whole cell patch clamp assay
Potassium voltage-gated channel subfamily H member 2, sequence (Q12809 whole entry): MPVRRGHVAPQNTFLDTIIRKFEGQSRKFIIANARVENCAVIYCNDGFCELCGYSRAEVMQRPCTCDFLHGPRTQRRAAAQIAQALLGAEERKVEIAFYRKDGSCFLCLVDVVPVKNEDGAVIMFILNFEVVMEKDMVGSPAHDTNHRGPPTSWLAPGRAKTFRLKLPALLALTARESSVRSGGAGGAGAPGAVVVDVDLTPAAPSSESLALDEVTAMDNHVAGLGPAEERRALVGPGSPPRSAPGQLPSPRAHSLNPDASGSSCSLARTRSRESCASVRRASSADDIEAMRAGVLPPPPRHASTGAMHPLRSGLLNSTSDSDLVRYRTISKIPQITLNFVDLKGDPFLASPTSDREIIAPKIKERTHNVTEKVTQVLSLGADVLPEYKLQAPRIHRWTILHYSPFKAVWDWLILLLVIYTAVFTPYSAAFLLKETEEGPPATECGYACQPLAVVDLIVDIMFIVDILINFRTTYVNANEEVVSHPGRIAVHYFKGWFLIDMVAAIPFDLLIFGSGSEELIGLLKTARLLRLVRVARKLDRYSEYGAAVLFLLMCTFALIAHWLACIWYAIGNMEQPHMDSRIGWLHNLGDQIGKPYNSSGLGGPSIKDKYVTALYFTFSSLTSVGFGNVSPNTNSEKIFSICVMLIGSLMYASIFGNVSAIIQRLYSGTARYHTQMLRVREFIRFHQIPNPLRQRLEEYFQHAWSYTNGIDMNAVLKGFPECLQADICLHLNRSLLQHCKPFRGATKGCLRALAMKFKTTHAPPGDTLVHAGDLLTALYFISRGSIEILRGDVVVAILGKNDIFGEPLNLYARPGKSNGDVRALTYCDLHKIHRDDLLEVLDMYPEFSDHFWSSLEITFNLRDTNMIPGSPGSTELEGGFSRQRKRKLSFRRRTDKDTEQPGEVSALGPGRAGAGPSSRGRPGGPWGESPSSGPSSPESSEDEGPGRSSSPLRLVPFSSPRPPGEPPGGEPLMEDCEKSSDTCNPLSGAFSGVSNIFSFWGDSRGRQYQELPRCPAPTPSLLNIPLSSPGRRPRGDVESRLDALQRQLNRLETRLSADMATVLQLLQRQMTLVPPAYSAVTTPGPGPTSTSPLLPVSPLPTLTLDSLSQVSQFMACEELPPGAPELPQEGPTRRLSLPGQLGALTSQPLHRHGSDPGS

Cytochrome P450 2C9, sequence (P11712 whole entry): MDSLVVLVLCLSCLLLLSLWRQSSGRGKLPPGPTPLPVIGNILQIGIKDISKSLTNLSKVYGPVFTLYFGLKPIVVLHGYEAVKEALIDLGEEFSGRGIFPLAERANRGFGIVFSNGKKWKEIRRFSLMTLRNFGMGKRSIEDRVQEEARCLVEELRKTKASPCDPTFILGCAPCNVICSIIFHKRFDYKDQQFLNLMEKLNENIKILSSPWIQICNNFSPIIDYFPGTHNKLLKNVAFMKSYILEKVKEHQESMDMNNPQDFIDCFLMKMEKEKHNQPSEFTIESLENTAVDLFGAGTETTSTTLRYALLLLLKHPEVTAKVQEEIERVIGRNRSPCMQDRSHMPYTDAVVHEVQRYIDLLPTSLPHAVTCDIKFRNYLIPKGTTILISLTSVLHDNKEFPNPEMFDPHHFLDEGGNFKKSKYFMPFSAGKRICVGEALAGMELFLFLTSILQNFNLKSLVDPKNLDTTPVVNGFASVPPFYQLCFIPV
Cytochrome P450 2C19, sequence (P33261 whole entry): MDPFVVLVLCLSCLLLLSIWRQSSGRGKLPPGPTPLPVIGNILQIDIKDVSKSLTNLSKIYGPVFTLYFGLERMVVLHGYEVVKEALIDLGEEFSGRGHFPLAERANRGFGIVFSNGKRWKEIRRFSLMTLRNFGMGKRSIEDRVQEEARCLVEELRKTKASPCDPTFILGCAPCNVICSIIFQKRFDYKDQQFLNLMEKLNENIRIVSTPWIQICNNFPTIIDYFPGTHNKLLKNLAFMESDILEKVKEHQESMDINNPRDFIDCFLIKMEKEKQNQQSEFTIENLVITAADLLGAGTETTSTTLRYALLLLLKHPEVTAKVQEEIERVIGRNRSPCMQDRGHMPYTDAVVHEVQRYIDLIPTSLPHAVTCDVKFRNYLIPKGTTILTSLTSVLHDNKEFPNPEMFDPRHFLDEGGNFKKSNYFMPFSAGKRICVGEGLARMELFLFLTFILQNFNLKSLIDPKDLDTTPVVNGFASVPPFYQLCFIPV

c1ccc([C@]2(CCNCc3scc4c3CCC4)CCO[C@]3(CCOC3)C2)nc1 [US11124523, Example (+)-2]
IC50 [1]: > 50 µM | IC50 [2]: > 50 µM | IC50 [3]: > 40 µM

Fc1ccc([C@]2(CCNCc3cccc(Cl)c3)CCO[C@]3(CCOC3)C2)nc1 [US11124523, Example (+)-16]
IC50 [2]: > 50 µM

— BindingDB's records for doi:10.1016/j.ejmech.2021.113986 (Yantai University, 2022)
